Source: ChEMBL document CHEMBL1201862, “PubChem BioAssay data set” (2004)
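96-well plates; 48 h exposure; 5 concentrations. Endpoints by linear interpolation between flanking doses. Not reached: highest tested concentration assigned. GI50 marks 50% less growth.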 Active and inactive are the calls of the source. No stated cut-off is given here; in the data, active = GI50 up to about 1.1 µM and inactive = higher.

Key:
Assay in all cases: inhibition of tumour cell growth, NCI panel, 48 h
SR = test system: SR
ACHN = test system: ACHN
LXFL 529 = test system: LXFL 529
RXF 631 = test system: RXF 631
XF498 = test system: XF498
DMS-273 = test system: DMS-273
BT-549 = test system: BT-549
HOP-18 = test system: HOP-18

CCOC(=O)c1csc(NC(=O)CN2CCN(C)CC2)n1
GI50 (SR): > 100 µM (inactive) | GI50 (ACHN): > 100 µM (inactive)

CCOc1ccc(/N=N/c2ccc3oc(=O)c(/C(C)=N\NC(=O)CC(=O)Nc4ccc(Cl)cc4)cc3c2)cc1
GI50 (LXFL 529): 10.8 µM (inactive) | GI50 (SR): 3.47 µM (inactive) | GI50 (RXF 631): 20 µM (inactive) | GI50 (XF498): 2.07 µM (inactive) | GI50 (DMS-273): 16.3 µM (inactive) | GI50 (ACHN): 22.4 µM (inactive)

CC(O)=C1C(=O)CCC1=O
GI50 (BT-549): > 100 µM (inactive) | GI50 (SR): > 100 µM (inactive) | GI50 (ACHN): > 100 µM (inactive)

CC(C)OP(=O)(OC(C)C)c1c(N)n[nH]c1Nc1ccccc1
GI50 (SR): > 100 µM (inactive) | GI50 (ACHN): > 100 µM (inactive)

CN1CCC23c4ccccc4NC1C21CCN(C)C3Nc2ccccc21
GI50 (HOP-18): 343 µM (inactive) | GI50 (DMS-273): > 375 µM (inactive)

CC(=O)Oc1cc2c(cc1OC(C)=O)OCC(c1ccc(C)cc1)C2 (stereo not given)
GI50 (HOP-18): 26.9 µM (inactive) | GI50 (XF498): 15.4 µM (inactive) | GI50 (DMS-273): 19.4 µM (inactive)

COc1ccc(N2C(=O)C3c4[nH]c5ccccc5c4C4CCCCCCCCCC4C3C2=O)cc1 (stereo not given)
GI50 (SR): > 10 µM (inactive) | GI50 (ACHN): > 10 µM (inactive)
